Test results published in PubChem BioAssay (NCI).
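96-well plates; 48 h exposure; 5 concentrations. Endpoints by linear interpolation between flanking doses. Not reached: highest tested concentration assigned. GI50 = concentration required for 50% inhibition of growth. Definition used: TGI = concentration required for complete inhibition of growth.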

Test system: MDA-MB-468 breast
Test: growth of human tumour cells (NCI), 48 h

`COc1cc2c(cc1OCCCCCn1c(-c3ccco3)nc3ccccc31)N=C[C@@H]1CCCN1C2=O` was tested, and the GI50 was under 0.01 µM and the TGI was under 0.01 µM.
In the case of `CC(=O)Nc1ccc2c(c1)C(=O)c1cccc(F)c1-2`, the GI50 is reported as 15.2 µM and the TGI is reported as 45.8 µM.
In the case of `O=C(N/N=c1/ccoc2cccnc12)N1CCN(c2ncccn2)CC1`, the GI50 is reported as under 0.01 µM and the TGI is reported as 1.34 µM.
For `O=C(Nc1cccc([N+](=O)[O-])c1)c1ccc2ccccc2c1O`, the GI50 was 3.38 µM and the TGI was 71.3 µM.
`COc1cc(C2CC(c3ccc(Nc4ccnc5cc(Cl)ccc45)cc3)=NN2C=O)cc(OC)c1OC` (configuration not stated) showed a GI50 of 1.83 µM and a TGI of 4.38 µM.
Work on `O=C(Nc1ccc(Cl)cc1)c1ccc([N+](=O)[O-])o1` yielded a GI50 of 3.08 µM and a TGI of 14.9 µM.
In the case of `O=C1/C(=C/c2ccc(Cl)cc2)CN(Cc2cn(CCNc3ccnc4cc(Cl)ccc34)nn2)C/C1=C\c1ccc(Cl)cc1`, the GI50 is reported as 0.234 µM and the TGI is reported as 0.644 µM.
For `COc1ccc(N(C)c2nc(Cl)nc3ccn(C)c23)cc1`, the GI50 was under 0.01 µM and the TGI was over 100 µM.
With `COc1cc(OC)c2cc(C(=O)O)c(=O)oc2c1` the GI50 was over 100 µM and the TGI was over 100 µM.
`CC1(C)N=C(N)N=C(N)N1c1ccc(OCC(=O)N2CCOCC2)c(Cl)c1` gave a GI50 of 1.23 µM and a TGI of over 100 µM.
`COc1ccc2c(c1)C(=O)/C(=C/c1ccc([N+](=O)[O-])s1)O2` showed a GI50 of 0.291 µM and a TGI of 1.36 µM.
`O=C1Nc2ccccc2/C1=C/c1cn(C(=O)c2c(Cl)cccc2Cl)c2ccccc12` gave a GI50 of 4.52 µM and a TGI of 20.1 µM.
In the case of `O=C(NCC(=O)N1CC[C@H](NC2CCC(O)(c3ccc(-c4ncccn4)cn3)CC2)C1)c1cccc(C(F)(F)F)c1` (some centres not stated), the GI50 is reported as 19.6 µM and the TGI is reported as 95.4 µM.
For `COc1ccc(Cn2cnc3cc(C(=O)Nc4cccc5ccccc45)ccc32)c(OC)c1`, the GI50 was 0.0358 µM and the TGI was 2.42 µM.
Work on `O=C1CSC(=S)N1Cc1cccnc1` yielded a GI50 of 3.82 µM and a TGI of 17 µM.
With `COc1cc(C(=O)/C=C/c2c(-c3ccc(F)cc3)nc3ncccn23)cc(OC)c1OC` the GI50 was 2.75 µM and the TGI was 6.89 µM.
Work on `Cc1cc(NCCCCNc2ccnc3cc(Cl)ccc23)nc(Nc2ccc(C(=O)N3CCCC3)cc2)n1` yielded a GI50 of 1.82 µM and a TGI of 4.04 µM.
Work on `NC(N)=N/N=C(/c1ccccc1)c1ccc(Cl)cc1` yielded a GI50 of 2.4 µM and a TGI of 13 µM.
With `C=C(C)[C@@H]1CC[C@]2(C(=O)O)CC[C@]3(C)[C@H](CC[C@@H]4[C@@]5(C)C[C@@H](CC#Cc6ccc(Br)cc6)C(=O)C(C)(C)[C@@H]5CC[C@]43C)[C@@H]12` the GI50 was 7.25 µM and the TGI was 33.5 µM.
`O=C(Nc1cccnc1)c1cccc([N+](=O)[O-])c1` showed a GI50 of over 100 µM and a TGI of over 100 µM.
Compound `CCC1=Cc2cc(OC)ccc2OC12C=Cc1cc(OC)ccc1O2` (configuration not stated) has a GI50 of 0.436 µM and a TGI of over 100 µM.
`Cc1ccc(/C=C/C(=O)c2ccc(N)cc2)c(C)c1` gave a GI50 of 2.41 µM and a TGI of 5.13 µM.
For `Cc1cc(O)ccc1O`, the GI50 was 13.3 µM and the TGI was 27.3 µM.
Work on `COc1cc(Nc2ncc3c(C)nc(-c4cccc(Oc5ccccc5)c4)n3n2)cc(OC)c1OC` yielded a GI50 of 2.98 µM and a TGI of 18.4 µM.
For `CC(C)=CCc1ccc(O)c(=O)cc1C(C)C`, the GI50 was 0.868 µM and the TGI was 5.36 µM.
In the case of `CCOCC(=O)N[C@H]1CCc2cc(OC(=O)COCC)c(OC)c(OC)c2-c2ccc(SC)c(=O)cc21`, the GI50 is reported as 0.0714 µM and the TGI is reported as over 100 µM.
`Cn1ccnc1C(=O)/C=C/c1ccc(C(=O)Nc2ccccc2O)cc1` showed a GI50 of 1.6 µM and a TGI of 3.67 µM.
With `CCCCCCCCCCCCSC(=NC)NC` the GI50 was 1.47 µM and the TGI was 3.14 µM.
For `COc1ccc2cc3[n+](cc2c1OC)CCc1cc2c(cc1-3)OCO2`, the GI50 was 0.675 µM and the TGI was 6.78 µM.
Compound `N#Cc1c(NC(=O)c2cccc3ccccc23)sc2c1CCCC2` has a GI50 of 0.154 µM and a TGI of over 7.22 µM.
In the case of `CS(=O)(=O)Nc1cccc(-c2ccc3c(NC(=O)C4CC4)n[nH]c3c2)c1`, the GI50 is reported as 0.622 µM and the TGI is reported as 24.8 µM.
Compound `O=c1oc2ccc(F)cc2c(=O)n1-c1ccc(Cl)cc1F` has a GI50 of 1.51 µM and a TGI of 5.31 µM.
For `CC1CC(C)/C(=N/NC(N)=O)C(C(O)CC2CCC(=O)NC2=O)C1` (configuration not stated), the GI50 was 9.15 µM and the TGI was over 100 µM.
Compound `Cc1ccc(NSc2ccccc2[N+](=O)[O-])cc1` has a GI50 of 0.57 µM and a TGI of 16.3 µM.
`O=C1/C(=C/c2ccc([N+](=O)[O-])o2)Oc2ccccc21` showed a GI50 of 1.17 µM and a TGI of 2.94 µM.
`COc1ccc(Cn2cc3c(c2-c2ccc(O)cc2)CCc2cnoc2-3)cc1` was tested, and the GI50 was 0.245 µM and the TGI was 1.25 µM.
With `COc1ccc(/C(=N\O)c2cc(OC)c(OC)c(OC)c2)c(OC)c1N` the GI50 was 3.99 µM and the TGI was over 100 µM.
Work on `CCN(CC)CCCNc1nc2ccccc2c2c(=O)c3cc(Cl)ccc3sc12` yielded a GI50 of 1.59 µM and a TGI of 4.85 µM.
`O=c1[nH]ccc2nc(-c3ccc(CN4CCC(c5nc(-c6ccccn6)n[nH]5)CC4)cc3)c(-c3ccccc3)cc12` was tested, and the GI50 was 0.0887 µM and the TGI was 7.14 µM.
`O=C(CC(O)c1ccncc1)c1ccccc1` (configuration not stated) was tested, and the GI50 was 24.3 µM and the TGI was over 100 µM.
`CCCCCCCCCCCCCCCCOC(=O)c1c(C)[nH]c(/C=C2\N=C(c3ccc[nH]3)C=C2OC)c1C` showed a GI50 of 1.66 µM and a TGI of 5.29 µM.
